These results are taken from US7112562B2 (Diatos, S.A., priority 2001, dated 2006).

This test has as its system Caco-2 cell monolayers. Briefly: Trans-epithelial transport of D-[14C]-mannitol and L-[3H]-proline in presence of DPV. The format is cell-based. The settings on record: 30 μg/ml. Here is the method: Trans-epithelial transport experiments were carried out.

Consider “SSRRARRSPRHLGSG (listed as Homo sapiens) [DPV10]”, for which the “effect on amounts of D-[14C]-mannitol and L-[3H]-proline associated with the cells at the end of the experiment” value (Caco-2, 8 hours, FIG. 4) is listed as “did not affect”. For the same sequence, where the note is “Caco-2, FIG. 3”, the “effect on transport of D-[14C]-mannitol or L-[3H]-proline” value was “did not affect”.
